Results from publication PMC9668969 (Nature Communications, 2022).
Values joined by “and” are separate entries in the source; they are usually repeats but may differ in a detail not shown here. Identical values can stand only once.

Assays:
ELIC = conditions: cited from earlier work
WT ELIC = test: Asymmetric liposome stopped-flow Tl+ flux assay (no exchange vs exchange, 25 mol% outer leaflet POPG); assay type: biochemical, Erwinia chrysanthemi; parameters: key to Tl+ flux quenching rate, Avg. / Tl+ flux quenching rate: Tl+ influx rate kt at 2 ms from stretched-exponential fit (Eq. 2b); conditions: for Tl+ flux quenching rate, Avg. / Tl+ flux quenching rate: No-exchange: WT in 3:1 PC:PE with just beta-CD, 10 mM propylamine; for Tl+ flux quenching rate: single experiments
Protocol: The fluorescence sequential-mixing stopped-flow liposomal flux measurements were carried using an SX20 stopped-flow spectrofluorometer (Applied Photophysics) and Pro-Data SX software[13],[30]. 7.5 mg of the respective lipid mixture (POPC, 1:1 POPC: POPE, 1:1 POPC:POPG, 3:1 POPC:POPE, 3:1 POPC:POPG, 2:1:1 POPC:POPE:POPG) was dried in a glass vial to a thin film under a constant stream of N2. The lipids were then further dried under vacuum in a desiccator overnight. The following day the lipids were hydrated in 500 µl of reconstitution buffer (100 mM NaNO3, 10 mM HEPES, pH 7) (Buffer R), 250 µl of 75 mM 8-Aminonaphthalene-1,3,6-Trisulfonic Acid (ANTS, ThermoFisher Scientific) in buffer R, and doped with ~18 mg of CHAPS (Anatrace). The mixture was vortexed and then sonicated with heat until completely solubilized. Following the sonication, the solution was brought to RT then 3.5 µl of 6.7 mg/ml ELIC in Buffer A with 0.02% DDM was added (3 µg per mg of lipid). This combined solution was incubated at RT for 30 min, followed by the addition of 1 ml of 1:1 v/v SM-2 BioBeads in Buffer R and an additional 250 µl of 75 mM ANTS in Buffer R. This mixture was incubated at RT for 2.5 hr with gentle mixing. The liposome suspension was then extruded with an Avanti mini-extruder and 0.1 µm membrane (30×). The extruded liposomes were stored at 13 °C overnight with gentle rotation. The next day, the liposomes were diluted to 2.5 mL using assay buffer (140 mM NaNO3, 10 mM HEPES, pH 7) (Stopped-flow Buffer A), loaded into a PD-10 desalting column (Cytiva), eluted with 3 mL of Stopped-flow Buffer A and subsequently diluted 5-fold with Stopped-flow Buffer A.
Using propylamine as the agonist, the assay and analysis was carried out as previously described[13],[30]. ELIC-containing liposomes were first mixed 1:1 with Buffer A containing 2× the concentration of propylamine. After a variable delay of 10 ms to 25 s, the sample was then mixed 1:1 with a quenching buffer (90 mM NaNO3, 50 mM TlNO3, 10 mM HEPES, pH 7), and ANTS fluorescence (ex. 360 nm, fluorescence above 420 nm) was recorded for 1 s. For each delay time, 5 repeat measurements were obtained. The data were collected using Applied Photophysics Pro-Data SX software. The fluorescence quenching traces were fit to a stretched exponential (Eq. 2a) and the rate of Tl^+ influx was determined at 2 ms (Eq. 2b).2a Ft=F∞+F0−F∞⋅e^−t/τ^β 2b kt=β/τ⋅2ms/τ^(β−1) where Ft, F∞, F0 are the fluorescence at time t, final fluorescence and initial fluorescence. τ is the time constant, β the stretched exponential factor, and kt the calculated rate of Tl^+ influx at 2 ms. The time course of desensitization was also fit to a double exponential and a weighted time constant was calculated as was done for the patch-clamp data using Origin 2019b. All replicates were taken from independent samples.
Acceptor liposomes were prepared as described in the Stopped-flow fluorescence recordings section until completion of the extrusion step. The preparation was scaled up 2x to produce samples for the no-exchange and exchange conditions. After extrusion and storage of the liposomes overnight at 13 °C, the double liposome preparation was split into two equal volume aliquots of ~1.5 ml. Using the excel spreadsheet provided by Markones et al.[44], donor POPG and methyl-β-cyclodextrin (MβCD, Sigma) concentrations and volumes were calculated to produce an outer leaflet POPG content of 25 mol% in the liposomes. The calculations assumed a ~6.66 mM lipid concentration and 1.5 mL volume of the acceptor liposome solution[44]. A MβCD-POPG (50% saturation of MβCD by POPG) solution was formed by combining 224 µL 7.5 mM POPG in Stopped-flow Buffer A, 650 µl 300 mM MβCD in Stopped-flow Buffer A, and 126 µL Stopped-flow Buffer A, which was then mixed at 50 °C and 1000 RPM for 20 min using an Eppendorf thermomixer. […]

Q: Which “effect on ELIC agonist response” value (ELIC) does the source give for `CC/C=C\C/C=C\C/C=C\C/C=C\C/C=C\C/C=C\CCC(=O)O` [DHA, docosahexaenoic acid] here?
A: Its value is “decreases peak agonist response and increases desensitization”.

Q: Which “effect on ELIC” value (ELIC) does the source give for cardiolipin here?
A: The value was “positively modulates ELIC”.

Q: For methyl-β-cyclodextrin, which “Tl+ flux quenching rate, Avg.” value (WT ELIC; delay 0.01 s) is on record?
A: Its value is 12.9647.

Q: What about the “Tl+ flux quenching rate, Avg.” value (WT ELIC; delay 0.025 s) of the same compound?
A: The value was 13.7625.

Q: And the “Tl+ flux quenching rate, Avg.” value (WT ELIC; delay 0.05 s)?
A: Its value is 18.86.

Q: And the “Tl+ flux quenching rate, Avg.” value (WT ELIC; delay 0.1 s)?
A: Its value is 31.5581.

Q: And the “Tl+ flux quenching rate, Avg.” value (WT ELIC; delay 0.25 s)?
A: Its value is 29.5756.

Q: What about the “Tl+ flux quenching rate, Avg.” value (WT ELIC; delay 0.5 s) of the same compound?
A: The value was 31.8845.

Q: And the “Tl+ flux quenching rate, Avg.” value (WT ELIC; delay 1 s)?
A: Its value is 34.9406.

Q: What about the “Tl+ flux quenching rate, Avg.” value (WT ELIC; delay 2.5 s) of the same compound?
A: The value was 21.2322.

Q: What about the “Tl+ flux quenching rate, Avg.” value (WT ELIC; delay 5 s) of the same compound?
A: Its value is 10.788.

Q: What about the “Tl+ flux quenching rate, Avg.” value (WT ELIC; delay 10 s) of the same compound?
A: The value was 2.374.

Q: What about the “Tl+ flux quenching rate, Avg.” value (WT ELIC; delay 25 s) of the same compound?
A: The value was 1.305.

Q: What about the “effect on ELIC responses” value (WT ELIC; methyl-β-cyclodextrin alone, 3:1 POPC:POPE liposomes) of the same compound?
A: The value was “did not alter ELIC responses”.

Q: And the “Tl+ flux quenching rate” value (WT ELIC; delay 0.025 s)?
A: The value was 9.097 and 18.0228 and 11.9906 and 15.9401.

Q: And the “Tl+ flux quenching rate” value (WT ELIC; delay 0.25 s)?
A: Its value is 35.4461 and 38.8846 and 20.2406 and 23.7309.

Q: What about the “Tl+ flux quenching rate” value (WT ELIC; delay 2.5 s) of the same compound?
A: Its value is 25.1548 and 26.3221 and 15.7795 and 17.6721.

Q: And the “Tl+ flux quenching rate” value (WT ELIC; delay 5 s)?
A: The value was 10.4577 and 9.241 and 15.1687 and 8.284.
